For one molecule, dehydration temperature results are on record in patent US7175853B1, “Therapeutic system which can be moisture-activated” (LTS Lohmann Therapie-Systeme AG, priority 1998, dated 2007).

This series can be described thus: Dehydration behaviour of activators by Difference Scanning Calorimetry (DSC). Type of series: physicochemical. The settings on record: FIG. 14a-c. From the text:
The dehydration behaviour of these substances was examined in three example substances by Difference Scanning Calorimetry (DSC). This thermal analysis provides information on the stages of dehydration taking place under energy absorption, and on the respective typical temperature.

In turn, `O.O.O.O.O.O=[Si]([O-])[O-].[Na+].[Na+]` [Na2SiO3.5H2O, sodium metasilicate pentahydrate] showed a dehydration temperature of 86.5 °C.
